ChEMBL document CHEMBL3352542, “Synthesis, biological evaluation and molecular modeling study of 2-(1,3,4-thiadiazolyl-thio and 4-methyl-thiazolyl-thio)-quinazolin-4-ones as a new class of DHFR inhibitors” (Bioorg Med Chem Lett, 2014)
Calls of active or inactive are those of the source. The rule behind the calls is not given here.

Key:
Dihydrofolate reductase = target: T1, Dihydrofolate reductase (Bos taurus, UniProt P00376); experiment: Inhibition of bovine liver DHFR
T1 sequence (P00376 whole entry): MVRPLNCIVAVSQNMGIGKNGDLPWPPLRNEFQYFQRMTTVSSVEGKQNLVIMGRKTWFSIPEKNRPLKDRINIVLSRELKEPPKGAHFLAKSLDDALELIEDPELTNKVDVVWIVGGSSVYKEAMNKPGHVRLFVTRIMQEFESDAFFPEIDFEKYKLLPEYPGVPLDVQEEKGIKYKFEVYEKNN

Staphylococcus aureus = experiment: Antimicrobial activity against Staphylococcus aureus assessed as inhibition zone at 200 ug/disk after 24 hrs by disc-diffusion method; format: functional; settings: read-out: IZ
Bacillus subtilis = experiment: Antimicrobial activity against Bacillus subtilis assessed as inhibition zone at 200 ug/disk after 24 hrs by disc-diffusion method; format: functional; settings: read-out: IZ
Escherichia coli = experiment: Antimicrobial activity against Escherichia coli assessed as inhibition zone at 200 ug/disk after 24 hrs by disc-diffusion method; format: functional; settings: read-out: IZ
Pseudomonas aeruginosa = experiment: Antimicrobial activity against Pseudomonas aeruginosa assessed as inhibition zone at 200 ug/disk after 24 hrs by disc-diffusion method; format: functional; settings: read-out: IZ
Candida albicans = experiment: Antimicrobial activity against Candida albicans assessed as inhibition zone at 200 ug/disk after 24 hrs by disc-diffusion method; format: functional; settings: read-out: IZ
CCRF-CEM = experiment: Growth inhibition of human CCRF-CEM cells at 10 uM after 48 hrs; format: functional
HL-60(TB) = experiment: Growth inhibition of human HL-60(TB) cells at 10 uM after 48 hrs; format: functional
K562 = experiment: Growth inhibition of human K562 cells at 10 uM after 48 hrs; format: functional
MOLT-4 = experiment: Growth inhibition of human MOLT4 cells at 10 uM after 48 hrs; format: functional
RPMI-8226 = experiment: Growth inhibition of human RPMI8226 cells at 10 uM after 48 hrs; format: functional
SR = experiment: Growth inhibition of human SR cells at 10 uM after 48 hrs; format: functional
A549 = experiment: Growth inhibition of human A549 cells at 10 uM after 48 hrs; format: functional
HOP-92 = experiment: Growth inhibition of human HOP92 cells at 10 uM after 48 hrs; format: functional
NCI-H226 = experiment: Growth inhibition of human NCI-H226 cells at 10 uM after 48 hrs; format: functional
NCI-H23 = experiment: Growth inhibition of human NCI-H23 cells at 10 uM after 48 hrs; format: functional
NCI-H460 = experiment: Growth inhibition of human NCI-H460 cells at 10 uM after 48 hrs; format: functional
NCI-H522 = experiment: Growth inhibition of human NCI-H522 cells at 10 uM after 48 hrs; format: functional
COLO 205 = experiment: Growth inhibition of human COLO205 cells at 10 uM after 48 hrs; format: functional
HCC 2998 = experiment: Growth inhibition of human HCC2998 cells at 10 uM after 48 hrs; format: functional
HCT-116 = experiment: Growth inhibition of human HCT116 cells at 10 uM after 48 hrs; format: functional
HCT-15 = experiment: Growth inhibition of human HCT15 cells at 10 uM after 48 hrs; format: functional
HT-29 = experiment: Growth inhibition of human HT-29 cells at 10 uM after 48 hrs; format: functional
KM12 = experiment: Growth inhibition of human KM12 cells at 10 uM after 48 hrs; format: functional
SW-620 = experiment: Growth inhibition of human SW620 cells at 10 uM after 48 hrs; format: functional
SF-268 = experiment: Growth inhibition of human SF268 cells at 10 uM after 48 hrs; format: functional
SF-295 = experiment: Growth inhibition of human SF295 cells at 10 uM after 48 hrs; format: functional
SF-539 = experiment: Growth inhibition of human SF539 cells at 10 uM after 48 hrs; format: functional
SNB-19 = experiment: Growth inhibition of human SNB19 cells at 10 uM after 48 hrs; format: functional
SNB-75 = experiment: Growth inhibition of human SNB75 cells at 10 uM after 48 hrs; format: functional
U-251 = experiment: Growth inhibition of human U251 cells at 10 uM after 48 hrs; format: functional
LOX IMVI = experiment: Growth inhibition of human LOXIMVI cells at 10 uM after 48 hrs; format: functional
Malme-3M = experiment: Growth inhibition of human MALME-3M cells at 10 uM after 48 hrs; format: functional
M14 = experiment: Growth inhibition of human M14 cells at 10 uM after 48 hrs; format: functional
MDA-MB-435 = experiment: Growth inhibition of human MDA-MB-435 cells at 10 uM after 48 hrs; format: functional
SK-MEL-5 = experiment: Growth inhibition of human SK-MEL-5 cells at 10 uM after 48 hrs; format: functional
UACC-257 = experiment: Growth inhibition of human UACC257 cells at 10 uM after 48 hrs; format: functional
UACC-62 = experiment: Growth inhibition of human UACC62 cells at 10 uM after 48 hrs; format: functional
OVCAR-3 = experiment: Growth inhibition of human OVCAR3 cells at 10 uM after 48 hrs; format: functional
OVCAR-4 = experiment: Growth inhibition of human OVCAR4 cells at 10 uM after 48 hrs; format: functional
OVCAR-5 = experiment: Growth inhibition of human OVCAR5 cells at 10 uM after 48 hrs; format: functional
OVCAR-8 = experiment: Growth inhibition of human OVCAR8 cells at 10 uM after 48 hrs; format: functional
NCI/ADR-RES = experiment: Growth inhibition of human NCI-ADR-RES cells at 10 uM after 48 hrs; format: functional
786-0 = experiment: Growth inhibition of human 786-0 cells at 10 uM after 48 hrs; format: functional
A498 = experiment: Growth inhibition of human A498 cells at 10 uM after 48 hrs; format: functional
ACHN = experiment: Growth inhibition of human ACHN cells at 10 uM after 48 hrs; format: functional
CAKI-1 = experiment: Growth inhibition of human CAKI-1 cells at 10 uM after 48 hrs; format: functional
RXF 393 = experiment: Growth inhibition of human RXF393 cells at 10 uM after 48 hrs; format: functional
SN12C = experiment: Growth inhibition of human SN12C cells at 10 uM after 48 hrs; format: functional
TK-10 = experiment: Growth inhibition of human TK10 cells at 10 uM after 48 hrs; format: functional
UO-31 = experiment: Growth inhibition of human UO31 cells at 10 uM after 48 hrs; format: functional
PC-3 = experiment: Growth inhibition of human PC3 cells at 10 uM after 48 hrs; format: functional
MCF7 = experiment: Growth inhibition of human MCF7 cells at 10 uM after 48 hrs; format: functional
MDA-MB-231 = experiment: Growth inhibition of human MDA-MB-231 cells at 10 uM after 48 hrs; format: functional
Hs-578T = experiment: Growth inhibition of human Hs 578T cells at 10 uM after 48 hrs; format: functional
BT-549 = experiment: Growth inhibition of human BT549 cells at 10 uM after 48 hrs; format: functional
T47D = experiment: Growth inhibition of human T47D cells at 10 uM after 48 hrs; format: functional
MDA-MB-468 = experiment: Growth inhibition of human MDA-MB-468 cells at 10 uM after 48 hrs; format: functional

## COc1cc2nc(Sc3sc(N)nc3C)n(-c3ccc(Cl)cc3)c(=O)c2cc1OC
Dihydrofolate reductase
  IC50: 2 µM
Staphylococcus aureus
  zone of inhibition at 200 µg/disc: 18 mm
Bacillus subtilis
  zone of inhibition at 200 µg/disc: 14 mm
Escherichia coli
  zone of inhibition at 200 µg/disc: 8 mm
Pseudomonas aeruginosa
  zone of inhibition at 200 µg/disc: 8 mm
Candida albicans
  zone of inhibition at 200 µg/disc: 8 mm
CCRF-CEM
  growth inhibition (GI): inactive
HL-60(TB)
  growth inhibition (GI): inactive
K562
  growth inhibition (GI): inactive
MOLT-4
  growth inhibition (GI): inactive
RPMI-8226
  growth inhibition (GI): inactive
SR
  growth inhibition (GI): inactive
A549
  growth inhibition (GI): inactive
HOP-92
  growth inhibition (GI): inactive
NCI-H226
  growth inhibition (GI): inactive
NCI-H23
  growth inhibition (GI): inactive
NCI-H460
  growth inhibition (GI): inactive
NCI-H522
  growth inhibition (GI): inactive
COLO 205
  growth inhibition (GI): inactive
HCC 2998
  growth inhibition (GI): inactive
HCT-116
  growth inhibition (GI): inactive
HCT-15
  growth inhibition (GI): inactive
HT-29
  growth inhibition (GI): inactive
KM12
  growth inhibition (GI): inactive
SW-620
  growth inhibition (GI): inactive
SF-268
  growth inhibition (GI): inactive
SF-295
  growth inhibition (GI): inactive
SF-539
  growth inhibition (GI): inactive
SNB-19
  growth inhibition (GI): inactive
SNB-75
  growth inhibition (GI): inactive
U-251
  growth inhibition (GI): inactive
LOX IMVI
  growth inhibition (GI): inactive
Malme-3M
  growth inhibition (GI): inactive
M14
  growth inhibition (GI): inactive
MDA-MB-435
  growth inhibition (GI): inactive
SK-MEL-5
  growth inhibition (GI): inactive
UACC-257
  growth inhibition (GI): inactive
UACC-62
  growth inhibition (GI): inactive
OVCAR-3
  growth inhibition (GI): inactive
OVCAR-4
  growth inhibition (GI): inactive
OVCAR-5
  growth inhibition (GI): inactive
OVCAR-8
  growth inhibition (GI): inactive
NCI/ADR-RES
  growth inhibition (GI): inactive
786-0
  growth inhibition (GI): inactive
A498
  growth inhibition (GI): inactive
ACHN
  growth inhibition (GI): inactive
CAKI-1
  growth inhibition (GI): inactive
RXF 393
  growth inhibition (GI): inactive
SN12C
  growth inhibition (GI): inactive
TK-10
  growth inhibition (GI): inactive
UO-31
  growth inhibition (GI): inactive
PC-3
  growth inhibition (GI): inactive
MCF7
  growth inhibition (GI): inactive
MDA-MB-231
  growth inhibition (GI): inactive
Hs-578T
  growth inhibition (GI): inactive
BT-549
  growth inhibition (GI): inactive
T47D
  growth inhibition (GI): inactive
MDA-MB-468
  growth inhibition (GI): inactive

## Cc1ccc2nc(Sc3nnc(N)s3)n(Cc3ccccc3)c(=O)c2c1
Dihydrofolate reductase
  IC50: 2 µM
Staphylococcus aureus
  zone of inhibition at 200 µg/disc: 8 mm
Bacillus subtilis
  zone of inhibition at 200 µg/disc: 8 mm
Escherichia coli
  zone of inhibition at 200 µg/disc: 8 mm
Pseudomonas aeruginosa
  zone of inhibition at 200 µg/disc: 8 mm
Candida albicans
  zone of inhibition at 200 µg/disc: 8 mm
CCRF-CEM
  growth inhibition (GI): inactive
HL-60(TB)
  growth inhibition (GI): inactive
K562
  growth inhibition (GI): inactive
MOLT-4
  growth inhibition (GI): inactive
RPMI-8226
  growth inhibition (GI): inactive
SR
  growth inhibition (GI): inactive
A549
  growth inhibition (GI): inactive
HOP-92
  growth inhibition (GI): inactive
NCI-H226
  growth inhibition (GI): inactive
NCI-H23
  growth inhibition (GI): inactive
NCI-H460
  growth inhibition (GI): inactive
NCI-H522
  growth inhibition (GI): inactive
COLO 205
  growth inhibition (GI): inactive
HCC 2998
  growth inhibition (GI): inactive
HCT-116
  growth inhibition (GI): inactive
HCT-15
  growth inhibition (GI): inactive
HT-29
  growth inhibition (GI): inactive
KM12
  growth inhibition (GI): inactive
SW-620
  growth inhibition (GI): inactive
SF-268
  growth inhibition (GI): inactive
SF-295
  growth inhibition (GI): inactive
SF-539
  growth inhibition (GI): inactive
SNB-19
  growth inhibition (GI): inactive
SNB-75
  growth inhibition (GI): inactive
U-251
  growth inhibition (GI): inactive
LOX IMVI
  growth inhibition (GI): inactive
Malme-3M
  growth inhibition (GI): inactive
M14
  growth inhibition (GI): inactive
MDA-MB-435
  growth inhibition (GI): inactive
SK-MEL-5
  growth inhibition (GI): inactive
UACC-257
  growth inhibition (GI): inactive
UACC-62
  growth inhibition (GI): inactive
OVCAR-3
  growth inhibition (GI): inactive
OVCAR-4
  growth inhibition (GI): inactive
OVCAR-5
  growth inhibition (GI): inactive
OVCAR-8
  growth inhibition (GI): inactive
NCI/ADR-RES
  growth inhibition (GI): inactive
786-0
  growth inhibition (GI): inactive
A498
  growth inhibition (GI): inactive
ACHN
  growth inhibition (GI): inactive
CAKI-1
  growth inhibition (GI): inactive
RXF 393
  growth inhibition (GI): inactive
SN12C
  growth inhibition (GI): inactive
TK-10
  growth inhibition (GI): inactive
UO-31
  growth inhibition (GI): inactive
PC-3
  growth inhibition (GI): inactive
MCF7
  growth inhibition (GI): inactive
MDA-MB-231
  growth inhibition (GI): inactive
Hs-578T
  growth inhibition (GI): inactive
BT-549
  growth inhibition (GI): inactive
T47D
  growth inhibition (GI): inactive
MDA-MB-468
  growth inhibition (GI): inactive
